According to the NIST ThermoML archive (doi:10.1021/je700339f):

Assay: xn = mol fraction of the nth substance listed
Conditions: 298 K, Liquid

ClCCCCCl [1,4-dichlorobutane] + CC(=O)N(C)C
mass density [kg/m3]
Conditions | x2 = 0.0975 | x2 = 0.2001 | x2 = 0.2996 | x2 = 0.4017 | x2 = 0.5009 | x2 = 0.5981 | x2 = 0.6987 | x2 = 0.801 | x2 = 0.9012
100 kPa | 1116.3 | 1097.8 | 1079.3 | 1060 | 1040.7 | 1021.7 | 1001.1 | 980 | 958.6
500 kPa | 1116.6 | 1098.2 | 1079.6 | 1060.3 | 1041 | 1022 | 1001.3 | 980.3 | 958.8
1000 kPa | 1117 | 1098.6 | 1080 | 1060.6 | 1041.4 | 1022.3 | 1001.7 | 980.6 | 959.2
1500 kPa | 1117.4 | 1098.9 | 1080.3 | 1061 | 1041.7 | 1022.7 | 1002 | 980.8 | 959.5
2000 kPa | 1117.7 | 1099.3 | 1080.7 | 1061.3 | 1042 | 1023 | 1002.3 | 981.2 | 959.8
2500 kPa | 1118.1 | 1099.6 | 1081 | 1061.7 | 1042.4 | 1023.3 | 1002.8 | 981.6 | 960.1
3000 kPa | 1118.5 | 1100.1 | 1081.4 | 1062.1 | 1042.7 | 1023.7 | 1003.1 | 982 | 960.4
3500 kPa | 1118.9 | 1100.4 | 1081.8 | 1062.4 | 1043.1 | 1024 | 1003.4 | 982.2 | 960.7
4000 kPa | 1119.3 | 1100.8 | 1082.1 | 1062.8 | 1043.4 | 1024.4 | 1003.7 | 982.6 | 961
4500 kPa | 1119.6 | 1101.2 | 1082.5 | 1063.2 | 1043.7 | 1024.8 | 1004 | 982.9 | 961.3
5000 kPa | 1120 | 1101.5 | 1082.8 | 1063.4 | 1044.1 | 1025 | 1004.4 | 983.2 | 961.6
5500 kPa | 1120.4 | 1101.9 | 1083.2 | 1063.8 | 1044.5 | 1025.4 | 1004.7 | 983.4 | 961.9
6000 kPa | 1120.7 | 1102.2 | 1083.6 | 1064.2 | 1044.9 | 1025.6 | 1005 | 983.8 | 962.2
6500 kPa | 1121.1 | 1102.6 | 1083.9 | 1064.5 | 1045.2 | 1026 | 1005.3 | 984.1 | 962.6
7000 kPa | 1121.5 | 1102.9 | 1084.3 | 1064.9 | 1045.5 | 1026.4 | 1005.7 | 984.4 | 962.9
7500 kPa | 1121.9 | 1103.2 | 1084.6 | 1065.2 | 1045.8 | 1026.7 | 1006 | 984.8 | 963.1
8000 kPa | 1122.2 | 1103.6 | 1085 | 1065.5 | 1046.2 | 1027 | 1006.3 | 985 | 963.5
8500 kPa | 1122.5 | 1104 | 1085.4 | 1065.9 | 1046.6 | 1027.3 | 1006.6 | 985.4 | 963.7
9000 kPa | 1123 | 1104.3 | 1085.7 | 1066.2 | 1046.9 | 1027.7 | 1007 | 985.6 | 964
9500 kPa | 1123.2 | 1104.7 | 1086 | 1066.6 | 1047.2 | 1028 | 1007.3 | 986 | 964.3
10000 kPa | 1123.7 | 1105.2 | 1086.4 | 1067 | – | – | – | – | –
